US8541457B2, “Aminothiazole derivatives as human stearoyl-CoA desaturase inhibitors” (Xenon Pharmaceuticals Inc., priority 2005, dated 2013)

SMILES | melting point [°C]
COc1ccc(C(=O)Nc2nc(C)c(C(=O)NCc3ccccc3)s2)cc1 [Example 2.33, 2-(4-Methoxybenzoylamino)-4-methylthiazole-5-carboxylic Acid Benzylamide] | 203 to 204
COc1cccc(C(=O)Nc2nc(C)c(C(=O)NCc3ccccc3)s2)c1 [Example 2.34, 2-(3-Methoxybenzoylamino)-4-methylthiazole-5-carboxylic Acid Benzylamide] | 75 to 77
Cc1nc(NC(=O)c2cccc(S(C)(=O)=O)c2)sc1C(=O)NCc1ccccc1 [Example 2.35, 2-(3-Methanesulfonylbenzoylamino)-4-methylthiazole-5-carboxylic Acid Benzylamide] | 111 to 113
Cc1nc(NC(=O)c2ccccc2S(C)(=O)=O)sc1C(=O)NCc1ccccc1 [Example 2.36, 2-(2-Methanesulfonylbenzoylamino)-4-methylthiazole-5-carboxylic Acid Benzylamide] | 239 to 242
Cc1nc(NC(=O)c2ccc(Cl)c(Cl)c2)sc1C(=O)NCc1ccccc1 [Example 2.37, 2-(3,4-Dichlorobenzoylamino)-4-methylthiazole-5-carboxylic Acid Benzylamide] | 212 to 214
Cc1nc(NC(=O)c2ccc(S(C)(=O)=O)cc2)sc1C(=O)NCc1ccccc1 [Example 2.38, 2-(4-Methanesulfonylbenzoylamino)-4-methylthiazole-5-carboxylic Acid Benzylamide] | 262 to 265
Cc1nc(NC(=O)Cc2ccccc2)sc1C(=O)NCc1ccccc1 [Example 2.39, 4-Methyl-2-phenylacetylaminothiazole-5-carboxylic Acid Benzylamide] | 63 to 65
Cc1nc(NC(=O)CCc2ccccc2)sc1C(=O)NCc1ccccc1 [Example 2.40, 4-Methyl-2-(3-phenylpropionylamino)thiazole-5-carboxylic Acid Benzylamide] | 63 to 65
Cc1nc(NC(=O)CC2CC2)sc1C(=O)NCc1ccccc1 [Example 2.41, 2-(2-Cyclopropylacetylamino)-4-methylthiazole-5-carboxylic Acid Benzylamide] | 136 to 139
Cc1ccc(S(=O)(=O)Nc2nc(C)c(C(=O)NCc3ccccc3)s2)cc1 [Example 2.42, 4-Methyl-2-(toluene-4-sulfonylamino)thiazole-5-carboxylic Acid Benzylamide] | 242 to 245
CCC(NC(=O)c1sc(NC(=O)c2ccccc2)nc1C)c1ccccc1 (centres unmarked) [Example 3, 2-Benzoylamino-4-methylthiazole-5-carboxylic Acid (1-Phenylpropyl)amide] | 87 to 89
O=C(Nc1nc(Cl)c(C(=O)NCc2ccccc2)s1)c1ccccc1 [Example 3.1, 2-Benzoylamino-4-chlorothiazole-5-carboxylic Acid Benzylamide] | 247 to 249
Cc1nc(NC(=O)Nc2ccccc2)sc1C(=O)NCc1ccccc1 [Example 4, 4-Methyl-2-(3-phenylureido)thiazole-5-carboxylic Acid Benzylamide] | > 300
Cc1nc(NC(=O)Nc2ccc(F)cc2)sc1C(=O)NCc1ccccc1 [Example 4.1, 2-[3-(4-Fluorophenyl)ureido]-4-methylthiazole-5-carboxylic Acid Benzylamide] | > 300
Cc1nc(NC(=O)Nc2ccc(Cl)cc2)sc1C(=O)NCc1ccccc1 [Example 4.2, 2-[3-(4-Chlorophenyl)ureido]-4-methylthiazole-5-carboxylic Acid Benzylamide] | > 300
Cc1nc(NC(=O)c2ccc(-c3nn[nH]n3)cc2)sc1C(=O)NCc1ccccc1 [Example 6, 4-Methyl-2-[4-(2H-tetrazol-5-yl)benzoylamino]thiazole-5-carboxylic Acid Benzylamide] | > 300
Cc1nc(NC(=O)c2ccccc2)sc1C(=O)NCC1CC1 [Example 7, 2-Benzoylamino-4-methylthiazole-5-carboxylic Acid Cyclopropylmethylamide] | 163 to 166
Cc1nc(NC(=O)c2ccccc2)sc1C(=O)NCc1cccc(Cl)c1 [Example 7.1, 2-Benzoylamino-4-methylthiazole-5-carboxylic Acid 3-Chlorobenzylamide] | 198 to 199
Cc1nc(NC(=O)c2ccccc2)sc1C(=O)NCc1cccc(F)c1 [Example 7.2, 2-Benzoylamino-4-methylthiazole-5-carboxylic Acid 3-Fluorobenzylamide] | 216 to 217
Cc1nc(NC(=O)c2ccccc2)sc1C(=O)NCc1ccccc1F [Example 7.3, 2-Benzoylamino-4-methylthiazole-5-carboxylic Acid 2-Fluorobenzylamide] | 180 to 183
Cc1nc(NC(=O)c2ccccc2)sc1C(=O)NCc1ccccc1Cl [Example 7.4, 2-Benzoylamino-4-methylthiazole-5-carboxylic acid 2-chlorobenzylamide] | 191 to 193
Cc1nc(NC(=O)c2ccccc2)sc1C(=O)NCc1ccccc1C(F)(F)F [Example 7.5, 2-Benzoylamino-4-methylthiazole-5-carboxylic Acid 2-Trifluoromethylbenzylamide] | 198 to 199
Cc1nc(NC(=O)c2ccccc2)sc1C(=O)NCc1ccc(F)cc1 [Example 7.6, 2-Benzoylamino-4-methylthiazole-5-carboxylic Acid 4-Fluorobenzylamide] | 206 to 208
Cc1nc(NCc2ccccc2)sc1C(=O)NCc1ccccc1 [Example 8, 2-Benzylamino-4-methylthiazole-5-carboxylic Acid Benzylamide] | 169 to 172
Cc1nc(NC(=O)c2ccccc2)sc1C(=O)NNC(=O)c1ccccc1 [Example 9, N-(5-(2-Benzoylhydrazinecarbonyl)-4-methylthiazol-2-yl)benzamide] | 258 to 260
Cc1nc(NC(=O)c2ccccc2)sc1C(=O)n1ccnc1 [Example 10, N-(5-(1H-Imidazole-1-carbonyl)-4-methylthiazol-2-yl)benzamide] | 228 to 231
COc1cc(C(=O)Nc2nc(C)c(C(=O)NCc3ccccc3)s2)ccn1 [Example 13, N-Benzyl-2-(2-methoxyisonicotinamido)-4-methylthiazole-5-carboxamide] | 188 to 190
Cc1nc(NC(=O)c2cc[nH]c(=O)c2)sc1C(=O)NCc1ccccc1 [Example 14, N-Benzyl-4-methyl-2-(2-oxo-1,2-dihydropyridine-4-carboxamido)thiazole-5-carboxamide] | 290 to 292
Cc1nc(NC(=O)c2ccn(-c3ccccc3)c(=O)c2)sc1C(=O)NCc1ccccc1 [Example 15, N-Benzyl-4-methyl-2-(2-oxo-1-phenyl-1,2-dihydropyridine-4-carboxamido)thiazole-5-carboxamide] | 260 to 262
